We go through 10 compounds from patent publication US5110825A, “Benzofuran derivative” (Shionogi & Co., Ltd., priority 1989, dated 1992).

Each structure is given as a SMILES string.

In the assay the target is T1, HMG-CoA reductase (Rattus norvegicus, UniProt P51639).
T1 sequence (P51639 1-887): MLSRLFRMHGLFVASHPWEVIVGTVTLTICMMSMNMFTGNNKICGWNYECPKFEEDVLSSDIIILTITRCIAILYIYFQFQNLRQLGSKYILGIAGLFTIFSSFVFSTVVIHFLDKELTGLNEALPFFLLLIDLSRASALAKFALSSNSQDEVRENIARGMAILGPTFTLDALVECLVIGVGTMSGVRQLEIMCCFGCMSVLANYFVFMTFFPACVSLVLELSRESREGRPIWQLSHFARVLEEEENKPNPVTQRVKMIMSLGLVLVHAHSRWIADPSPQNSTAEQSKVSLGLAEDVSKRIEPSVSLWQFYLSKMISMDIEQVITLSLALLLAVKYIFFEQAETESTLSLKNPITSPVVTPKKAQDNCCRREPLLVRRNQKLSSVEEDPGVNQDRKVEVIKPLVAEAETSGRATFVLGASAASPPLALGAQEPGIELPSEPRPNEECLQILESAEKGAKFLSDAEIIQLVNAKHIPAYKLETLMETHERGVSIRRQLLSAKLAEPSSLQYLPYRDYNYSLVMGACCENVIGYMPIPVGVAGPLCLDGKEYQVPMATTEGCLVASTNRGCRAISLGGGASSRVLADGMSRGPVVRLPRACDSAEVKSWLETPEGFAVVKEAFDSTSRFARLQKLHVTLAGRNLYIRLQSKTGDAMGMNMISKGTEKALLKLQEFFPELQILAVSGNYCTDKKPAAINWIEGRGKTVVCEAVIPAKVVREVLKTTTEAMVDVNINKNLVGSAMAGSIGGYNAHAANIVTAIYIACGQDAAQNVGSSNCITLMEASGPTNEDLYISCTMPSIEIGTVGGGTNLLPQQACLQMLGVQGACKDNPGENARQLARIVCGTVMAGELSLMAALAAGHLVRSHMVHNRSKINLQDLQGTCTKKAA
Put plainly: HMG-CoA reductase inhibitory activity (rat liver microsome). Format: biochemical, rat (Sprague-Dawley). The conditions noted are these: [3-14C]HMG-CoA, 37° C., 30 minutes.

The IC50 is the concentration that gives 50% inhibition. Read a high IC50 as weaker potency. On to `CC(C)c1oc2cccc(-c3ccc(F)cc3)c2c1/C=C/[C@@H](O)C[C@@H](O)CC(=O)O`, for which the IC50 stood at 740 nM. The value for `Cc1ccc(C(C)C)c2c(/C=C/[C@@H](O)C[C@@H](O)CC(=O)O)c(-c3ccc(F)cc3)oc12` (relative stereo) was 270 nM; that for `Cc1cc(-c2ccc3occ(C(C)C)c3c2/C=C/[C@@H](O)C[C@@H](O)CC(=O)O)ccc1F` (relative stereo) was 32 nM. In the case of `Cn1nnnc1C(/C=C/[C@@H](O)C[C@@H](O)CC(=O)O)=C(\c1ccc(F)cc1)c1cc2ccccc2o1` (relative stereo), the IC50 stood at 90 nM. Regarding `Cn1nnnc1C(/C=C/[C@@H](O)C[C@@H](O)CC(=O)O)=C(/c1ccc(F)cc1)c1cc2ccccc2o1` (relative stereo), half-maximal inhibition (IC50) was put at 90 nM. Consider `CC(C)c1cccc2c(-c3ccc(F)cc3)c(/C=C/[C@@H](O)C[C@@H](O)CC(=O)O)oc12` (relative stereo) [Ia-2, Sodium (3R*,5S*)-(E)-7-[3-(4-fluorophenyl)-7-isopropylbenzofuran-2-yl]-3,5-dihydroxy-6-heptenate], for which inhibition was half-maximal at 900 nM (IC50). The compound `CC(C)c1c(/C=C/[C@@H](O)C[C@@H](O)CC(=O)O)oc2c(-c3ccc(F)cc3)cccc12` (relative stereo) [Ia-5, Sodium (3R*,5S*)-(E)-7-[3-isopropyl-7-(4-fluorophenylbenzofuran-2-yl]-3,5-dihydroxy-6-heptenate] gave a 50% inhibitory concentration (IC50) of 110 nM. For the compound `Cc1cc(-c2c(CC[C@@H](O)C[C@@H](O)CC(=O)O)oc3c(C(C)C)cccc23)ccc1F` (relative stereo) [Ia-11], the IC50 was found to be 220 nM. Compared with the last compound, the IC50 is about 2-fold higher. `CC(=O)N(C)c1ccc(-c2ccc(F)cc2)c2c(/C=C/[C@@H](O)C[C@@H](O)CC(=O)O)c(C(C)C)oc12` (relative stereo) [Ia-14, Sodium (3R*,5S*)-(E)-7-[7-(N-acetyl-N-methylamino)-4-(4-fluorophenyl)-2-isopropyl-3-yl]-3,5-dihydroxy-6-heptenate] gave an IC50 of 20 nM. This IC50 is about 11-fold lower than that of the compound before.

`CNc1ccc(-c2ccc(F)cc2)c2c(/C=C/[C@@H](O)C[C@@H](O)CC(=O)O)c(C(C)C)oc12` (relative stereo) [Ia-15, Sodium (3R*,5S*)-(E)-7-[4-(4-fluorophenyl)-2-isopropyl-7-methylamino-3-yl]-3,5-dihydroxy-6-heptenate] had an IC50 of 63 nM.
